ChEMBL document CHEMBL4765284, “Optimization of 5-substituted thiazolyl ureas and 6-substituted imidazopyridines as potential HIV-1 latency reversing agents” (Eur J Med Chem, 2020)
Converted amounts (≈) assume the structure as drawn.

Tests used:
[1] = Metabolic stability in mouse liver microsomes assessed as half life at 1 uM measured upto 60 mins by LC-MS anlaysis; assay type: ADME, Microsome
[2] = system: Human immunodeficiency virus 1; assay: Antiviral activity against HIV-1 infected in FlpIn-HEK293 cells assessed as activation of long terminal repeat driven gene expression incubated for 72 hrs by luciferase based cellular assay; assay type: functional, organism-based; settings: Human immunodeficiency virus 1, HEK293, 72 h
[3] = Metabolic stability in mouse liver microsomes assessed as intrinsic clearance at 1 uM measured upto 60 mins by LC-MS anlaysis; assay type: ADME, Microsome; settings: read-out: CLH
Cytomegalovirus = assay: Antiviral activity against CMV infected in FlpIn-HEK293 cells assessed as click beetle green reporter driven gene expression incubated for 72 hrs by luciferase based cellular assay; assay type: functional, organism-based; settings: HEK293, 72 h
[4] = Metabolic stability in human liver microsomes assessed as intrinsic clearance at 1 uM measured upto 60 mins by LC-MS analysis; assay type: ADME, Microsome; settings: read-out: CLH
[5] = Metabolic stability in human liver microsomes assessed as half life at 1 uM measured upto 60 mins by LC-MS anlaysis; assay type: ADME, Microsome
[6] = Aqueous solubility of compound at pH 2 by nephelometry; assay type: physicochemical
[7] = Aqueous solubility of compound at pH 6.5 by nephelometry; assay type: physicochemical
[8] = system: Human immunodeficiency virus 1; assay: Antiviral activity against HIV-1 infected in FlpIn-HEK293 cells assessed as maximal activation of long terminal repeat driven gene expression at 0.25 uM incubated for 48 hrs by luciferase based cellular assay relative to control; assay type: functional
[9] = system: Human immunodeficiency virus 1; assay: Antiviral activity against HIV-1 infected in J-Lat 10.6 cells assessed as maximal activation of long terminal repeat driven gene expression incubated for 48 hrs by green fluorescent protein based cellular assay; assay type: functional, organism-based; settings: Human immunodeficiency virus 1, J-Lat 10.6, 48 h
[10] = system: Human immunodeficiency virus 1; assay: Antiviral activity against HIV-1 infected in J-Lat 10.6 cells assessed as maximal activation of long terminal repeat driven gene expression at 1 uM incubated for 48 hrs by green fluorescent protein based cellular assay relative to control; assay type: functional
[11] = Cytotoxicity against human HepG2 cells assessed as growth incubation incubated for 48 hrs by cell titer glo assay; assay type: cell-based
[12] = system: Human immunodeficiency virus 1; assay: Antiviral activity against HIV-1 infected in J-Lat 10.6 cells assessed as maximal activation of long terminal repeat driven gene expression at 2 uM incubated for 48 hrs by green fluorescent protein based cellular assay relative to control; assay type: functional
[13] = system: Human immunodeficiency virus 1; assay: Antiviral activity against HIV-1 infected in FlpIn-HEK293 cells assessed as maximal activation of long terminal repeat driven gene expression at 0.31 uM incubated for 48 hrs by luciferase based cellular assay relative to control; assay type: functional
Cyclin-K (Homo sapiens) = biological target: T1, Cyclin-K (Homo sapiens) (UniProt O75909); assay: Inhibition of cyclin K (unknown origin) at 0.5 uM
T1 sequence (whole entry): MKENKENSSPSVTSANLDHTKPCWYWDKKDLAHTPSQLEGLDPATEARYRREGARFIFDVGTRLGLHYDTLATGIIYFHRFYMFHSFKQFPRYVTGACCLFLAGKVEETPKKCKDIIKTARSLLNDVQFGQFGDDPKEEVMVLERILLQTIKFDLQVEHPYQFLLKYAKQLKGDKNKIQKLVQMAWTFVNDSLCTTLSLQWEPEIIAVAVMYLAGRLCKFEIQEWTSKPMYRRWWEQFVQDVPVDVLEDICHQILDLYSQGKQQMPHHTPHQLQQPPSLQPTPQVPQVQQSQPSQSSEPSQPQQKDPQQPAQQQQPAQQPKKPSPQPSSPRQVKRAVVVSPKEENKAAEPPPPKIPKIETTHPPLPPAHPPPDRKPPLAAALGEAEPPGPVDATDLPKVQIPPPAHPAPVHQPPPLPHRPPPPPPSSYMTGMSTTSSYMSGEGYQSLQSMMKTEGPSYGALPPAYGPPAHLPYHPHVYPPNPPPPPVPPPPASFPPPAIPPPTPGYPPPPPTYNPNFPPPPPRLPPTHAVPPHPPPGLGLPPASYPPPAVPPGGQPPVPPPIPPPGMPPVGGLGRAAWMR

[14] = biological target: Cyclin-dependent kinase 9 (Homo sapiens) (UniProt P50750); assay: Inhibition of CDK9 (unknown origin) at 0.5 uM
Cyclin-T2 (Homo sapiens) = Cyclin-T2 (Homo sapiens) (UniProt O60583); assay: Inhibition of cyclin T2 (unknown origin) at 0.5 uM
Cyclin-T1 (Homo sapiens) = Cyclin-T1 (Homo sapiens) (UniProt O60563); assay: Inhibition of cyclin T1 (unknown origin) at 0.5 uM
Sequence of Cyclin-T1 (Homo sapiens) (O60563 whole entry): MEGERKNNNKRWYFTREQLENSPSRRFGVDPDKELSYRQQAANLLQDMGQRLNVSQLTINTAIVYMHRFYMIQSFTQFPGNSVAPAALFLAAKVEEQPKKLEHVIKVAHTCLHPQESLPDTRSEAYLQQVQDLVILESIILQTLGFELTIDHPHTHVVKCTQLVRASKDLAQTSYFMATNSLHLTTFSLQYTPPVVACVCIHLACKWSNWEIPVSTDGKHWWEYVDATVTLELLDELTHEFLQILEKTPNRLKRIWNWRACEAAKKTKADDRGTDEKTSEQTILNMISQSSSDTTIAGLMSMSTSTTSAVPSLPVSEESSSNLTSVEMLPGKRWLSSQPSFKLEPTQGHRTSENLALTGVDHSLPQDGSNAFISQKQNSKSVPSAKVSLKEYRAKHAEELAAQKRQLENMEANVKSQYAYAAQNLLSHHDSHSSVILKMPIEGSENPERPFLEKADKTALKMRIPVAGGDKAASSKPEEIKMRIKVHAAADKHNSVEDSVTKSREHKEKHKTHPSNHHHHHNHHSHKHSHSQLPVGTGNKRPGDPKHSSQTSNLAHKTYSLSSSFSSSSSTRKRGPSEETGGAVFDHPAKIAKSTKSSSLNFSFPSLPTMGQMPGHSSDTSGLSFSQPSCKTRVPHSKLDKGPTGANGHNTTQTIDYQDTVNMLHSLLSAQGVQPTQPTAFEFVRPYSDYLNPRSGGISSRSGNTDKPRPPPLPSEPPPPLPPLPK

Sequence of Cyclin-T2 (Homo sapiens) (O60583 whole entry): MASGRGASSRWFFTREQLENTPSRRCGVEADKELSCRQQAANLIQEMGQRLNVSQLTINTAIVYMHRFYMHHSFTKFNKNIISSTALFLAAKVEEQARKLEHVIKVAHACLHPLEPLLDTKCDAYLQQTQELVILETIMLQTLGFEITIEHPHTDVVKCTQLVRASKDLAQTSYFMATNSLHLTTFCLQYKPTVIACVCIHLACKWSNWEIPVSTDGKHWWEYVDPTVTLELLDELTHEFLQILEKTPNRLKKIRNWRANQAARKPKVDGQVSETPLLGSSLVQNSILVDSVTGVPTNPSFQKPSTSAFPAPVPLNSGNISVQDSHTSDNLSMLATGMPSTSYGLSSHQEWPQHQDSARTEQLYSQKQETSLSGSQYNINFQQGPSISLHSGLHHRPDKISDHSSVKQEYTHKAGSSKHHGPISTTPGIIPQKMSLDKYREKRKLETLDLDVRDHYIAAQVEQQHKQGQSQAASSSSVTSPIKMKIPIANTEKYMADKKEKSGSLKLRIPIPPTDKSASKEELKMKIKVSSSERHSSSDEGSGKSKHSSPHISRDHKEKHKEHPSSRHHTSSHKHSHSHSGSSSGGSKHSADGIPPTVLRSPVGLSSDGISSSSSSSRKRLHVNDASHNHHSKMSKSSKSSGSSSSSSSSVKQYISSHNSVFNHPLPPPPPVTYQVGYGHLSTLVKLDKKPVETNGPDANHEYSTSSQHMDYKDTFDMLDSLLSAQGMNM
Sequence of Cyclin-dependent kinase 9 (Homo sapiens) (P50750 whole entry): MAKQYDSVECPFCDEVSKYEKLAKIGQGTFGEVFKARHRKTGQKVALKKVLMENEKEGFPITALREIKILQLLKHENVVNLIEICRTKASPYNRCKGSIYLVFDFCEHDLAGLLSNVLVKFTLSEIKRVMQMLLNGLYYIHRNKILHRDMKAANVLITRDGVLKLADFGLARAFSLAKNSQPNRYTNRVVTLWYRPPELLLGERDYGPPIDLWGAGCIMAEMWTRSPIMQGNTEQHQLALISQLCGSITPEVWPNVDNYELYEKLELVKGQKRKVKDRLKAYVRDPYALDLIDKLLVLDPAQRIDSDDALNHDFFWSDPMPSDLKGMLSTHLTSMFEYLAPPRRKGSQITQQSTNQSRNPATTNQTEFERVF

Structure (SMILES)	EC50 [2]	EC50 (Cytomegalovirus)	further results
Cc1ccc(OCCCc2nc3cc(Cl)cnc3[nH]2)cc1Cl	9400 nM	12000 nM	half-life at 1 µM [1]: < 2 min; microsomal CLint at 1 µM [3]: > 866 µL/min/mg; microsomal CLint at 1 µM [4]: 329 µL/min/mg; half-life at 1 µM [5]: 5 min; solubility kinetic [6]: 1.6 µM (≈ 0.538 µg/mL); solubility kinetic [7]: < 1.6 µM
Cc1cnc(NC(=O)N2CCN(c3ccc(Cl)c(Cl)c3)CC2)s1	930 nM	490 nM	
O=C(Nc1ncc(Cl)s1)N1CCN(c2ccc(Cl)c(Cl)c2)CC1	310 nM	800 nM	
Cc1ccc(NC2CN(C(=O)Nc3ncc(Cl)s3)C2)cc1Cl	230 nM	1700 nM	half-life at 1 µM [1]: 36 min; %max [8]: 63%; microsomal CLint at 1 µM [3]: 49 µL/min/mg; EC50 [9]: 1500 nM; %max [10]: 31%; CC50 at 48 h [11]: 330 nM; solubility kinetic [6]: 1.6 µM (≈ 0.572 µg/mL); solubility kinetic [7]: 1.6 µM (≈ 0.572 µg/mL)
Cc1cnc(NC(=O)C2CCN(c3ccc(C)c(Cl)c3)CC2)s1	2500 nM	> 40000 nM	
Cc1cc(OC2CCN(C(=O)Nc3ncc(Cl)s3)CC2)ccc1Cl	20000 nM	20000 nM	
Cc1cnc(NC(=O)N2CC(N(C)c3ccc(C)c(Cl)c3)C2)s1	12000 nM	16000 nM	
Cc1cnc(NC(=O)N2CC(Oc3ccc(C)c(Cl)c3)C2)s1	220 nM	1900 nM	
Cc1cc(N[C@@H]2CCCN(C(=O)Nc3ncc(Cl)s3)C2)ccc1Cl	> 40000 nM	> 40000 nM	
Cc1cnc(NC(=O)N2CCN(c3ccccc3)CC2)s1	1700 nM	5000 nM	
Cc1cnc(NC(=O)N2CCC(Oc3ccc(Cl)c(C)c3)C2)s1 (centres undefined)	2000 nM	5200 nM	
Cc1cnc(NC(=O)N2CCN(c3cnc(Cl)c(Cl)c3)CC2)s1	300 nM	570 nM	
Cc1ccc(N2CC3(CN(C(=O)Nc4ncc(Cl)s4)C3)C2)cc1Cl	16000 nM	19000 nM	
Cc1ccc(N2CCN(C(=O)Nc3nccs3)CC2)cc1Cl	3400 nM	4000 nM	
Cc1ccc(OC2CN(C(=O)Nc3ncc(Cl)s3)C2)cc1Cl	530 nM	1900 nM	
Cc1cnc(NC(=O)N2CC(Nc3ccc(C)c(Cl)c3)C2)s1	670 nM	3000 nM	
O=C(Nc1ncc(C(F)(F)F)s1)N1CCN(c2cnc(Cl)c(Cl)c2)CC1	700 nM	480 nM	
Cc1cnc(NC(=O)N2CCN(c3cncnc3)CC2)s1	> 40000 nM	> 40000 nM	
Cc1cnc(NC(=O)N2CCN(c3ccc(Cl)c(C)c3)CC2)s1	600 nM	2300 nM	
Cc1cnc(NC(=O)N2CC3(C2)CN(c2ccc(C)c(Cl)c2)C3)s1	> 40000 nM	> 40000 nM	

Structure (SMILES)	EC50 [2]	EC50 (Cytomegalovirus)	further results
Cc1ccc(N2CCN(C(=O)Nc3ncc(C#N)s3)CC2)cc1Cl	240 nM	2300 nM	
Cc1cc(N2CCN(C(=O)Nc3ncc(Cl)s3)CC2)ccc1Cl	400 nM	890 nM	
Cc1cnc(NC(=O)N2CCC[C@@H](Nc3ccc(Cl)c(C)c3)C2)s1	> 40000 nM	> 40000 nM	
Cc1cnc(NC(=O)CCCOc2ccc(Cl)c(C)c2)s1			half-life at 1 µM [1]: 2 min; microsomal CLint at 1 µM [3]: 815 µL/min/mg; microsomal CLint at 1 µM [4]: 175 µL/min/mg; half-life at 1 µM [5]: 10 min; solubility kinetic [6]: < 1.1 µM; solubility kinetic [7]: 1.1 µM (≈ 0.357 µg/mL)
Cc1cnc(NC(=O)N2CCC(Oc3ccc(Cl)c(C)c3)CC2)s1	> 40000 nM	40000 nM	
Cc1cnc2[nH]c(N3CCN(c4ccc(Cl)c(Cl)c4)CC3)nc2c1	750 nM	820 nM	
O=C(Nc1ncc(Cl)s1)N1CCN(c2ccc(Cl)cc2)CC1	350 nM	1640 nM	
Clc1cnc2[nH]c(CCCOc3ccc(Cl)c(Cl)c3)nc2c1	3300 nM	1200 nM	
Cc1cnc(NC(=O)N2CCN(c3ccc(C)c(Cl)c3)CC2)s1	470 nM	5000 nM	
Cc1cc(N(C)C2CCN(C(=O)Nc3ncc(Cl)s3)CC2)ccc1Cl	> 40000 nM	> 40000 nM	
Cc1cnc(NC(=O)N2CCN(c3ccc(Cl)cc3)CC2)s1	2700 nM	5500 nM	
Cc1cnc(NC(=O)N2CCCN(c3ccc(C)c(Cl)c3)CC2)s1	10000 nM	21000 nM	
Cc1ccc(N2CCN(C(=O)Nc3ncc(Cl)s3)C(C)C2)cc1Cl (centres undefined)	1300 nM	1500 nM	
Cc1ccc(N2CCN(C(=O)Nc3ncc(Cl)s3)CC2=O)cc1Cl	640 nM	13000 nM	half-life at 1 µM [1]: 60 min; microsomal CLint at 1 µM [3]: 29 µL/min/mg; EC50 [9]: 2700 nM; CC50 at 48 h [11]: 42000 nM; %max [12]: 38%; %max [13]: 47%; solubility kinetic [6]: 1.6 µM (≈ 0.616 µg/mL); solubility kinetic [7]: 1.6 µM (≈ 0.616 µg/mL)
O=C(Nc1ncc(Cl)s1)N1CCN(c2cncnc2)CC1	8900 nM	12000 nM	
Cc1cnc(NC(=O)N2CCN(c3cccc(C#N)c3)CC2)s1	230 nM	1800 nM	
Cc1cnc2[nH]c(N3CCN(c4ccc(C)c(Cl)c4)CC3)nc2c1	3200 nM	2800 nM	half-life at 1 µM [1]: 8 min; microsomal CLint at 1 µM [3]: 224 µL/min/mg; microsomal CLint at 1 µM [4]: 115 µL/min/mg; half-life at 1 µM [5]: 15 min; solubility kinetic [6]: 50 µM (≈ 17.1 µg/mL); solubility kinetic [7]: < 1.6 µM
Cc1cnc2[nH]c(CCCOc3ccc(C)c(Cl)c3)nc2c1	12000 nM	24000 nM	
Cc1cc(N2CCN(C(=O)Nc3ncc(Cl)s3)CC2)cnc1C#N	210 nM	830 nM	
Cc1ccc(N2CCN(C(=O)Nc3ncc(Cl)s3)CC2)cc1Cl	240 nM	670 nM	half-life at 1 µM [1]: 33 min; inhibition (Cyclin-K (Homo sapiens)): 40%; %max [8]: 53%; microsomal CLint at 1 µM [3]: 53 µL/min/mg; inhibition [14]: 40%; inhibition (Cyclin-T2 (Homo sapiens)): 40%; EC50 [9]: 1700 nM; inhibition (Cyclin-T1 (Homo sapiens)): 40%; %max [10]: 23%; CC50 at 48 h [11]: 250 nM; solubility kinetic [6]: < 1.6 µM; solubility kinetic [7]: < 1.6 µM
